According to patent US11344552B2, “Methods for treating metastatic pancreatic cancer using combination therapies comprising liposomal irinotecan and oxaliplatin” (Ipsen Biopharm Ltd., priority 2015, dated 2022):
Where two headings read alike, the source gives them in different places.

Legend:
topoisomerase I = target: T1, topoisomerase I (Homo sapiens, UniProt P11387); details: metabolite formed by nonspecific carboxylesterases; cited from earlier work
T1 sequence (P11387 1-765): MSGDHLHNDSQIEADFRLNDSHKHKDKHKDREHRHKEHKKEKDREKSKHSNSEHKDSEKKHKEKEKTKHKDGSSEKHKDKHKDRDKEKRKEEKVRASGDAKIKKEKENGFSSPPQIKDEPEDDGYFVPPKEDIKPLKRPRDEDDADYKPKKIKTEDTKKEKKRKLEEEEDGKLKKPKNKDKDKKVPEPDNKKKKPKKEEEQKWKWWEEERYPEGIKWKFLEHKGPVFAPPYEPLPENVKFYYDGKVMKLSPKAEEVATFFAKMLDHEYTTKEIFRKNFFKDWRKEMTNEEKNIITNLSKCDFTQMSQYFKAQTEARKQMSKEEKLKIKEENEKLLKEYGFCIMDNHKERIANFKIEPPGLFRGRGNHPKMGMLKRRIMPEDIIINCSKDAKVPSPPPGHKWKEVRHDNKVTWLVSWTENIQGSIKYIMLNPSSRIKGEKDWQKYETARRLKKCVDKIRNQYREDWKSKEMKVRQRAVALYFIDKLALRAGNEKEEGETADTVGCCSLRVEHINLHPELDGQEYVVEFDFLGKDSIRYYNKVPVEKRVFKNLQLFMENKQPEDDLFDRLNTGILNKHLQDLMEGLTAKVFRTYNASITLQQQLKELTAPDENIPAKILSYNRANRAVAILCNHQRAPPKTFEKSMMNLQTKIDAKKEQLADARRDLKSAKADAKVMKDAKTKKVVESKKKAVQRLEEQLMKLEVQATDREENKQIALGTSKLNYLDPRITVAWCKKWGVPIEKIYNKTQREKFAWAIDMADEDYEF

[1] = test system: pancreatic cell lines (AsPC-1, BxPC-3, Capan-2, CFPAC-1, and MiaPaCa-2); assay: In vitro cell growth inhibition by SN-38 exposure duration in a panel of pancreatic cell lines; details: SN-38 combined with 5-FU or oxaliplatin; prolonged vs short exposure
[2] = Phase 3 study of the FOLFIRINOX combination; cited from earlier work
[3] = Delayed dosing of oxaliplatin: tolerability, hematologic and liver toxicities in naive CD-1 mice; details: intravenous, pre-defined
Description: Tolerability studies were performed in naïve (non-tumor-bearing) mice. Three animals were treated per group.
Each drug was administered individually, or in combination. […] A single administration of each drug was given. Mouse body weights were measured daily for up to 2 weeks post-treatment.
Measurement of hematologic and liver toxicities: At the end of study, terminal bleeds were performed for each mouse via cardiac puncture. Hematologic function (blood cell count) was measured by Hemavet (Drew Scientific, Miami Lakes, Fla.), according to manufacturer's protocol. Liver function (enzyme levels) was measured by CatalystDx (Idexx Laboratories, Westbrook, Me.) according to the manufacturer's protocol.

[4] = cited from earlier work
[5] = test system: PDX 19015 pancreatic cancer xenograft; assay: Patient-derived xenograft (PDX #19015) pancreatic cancer mouse efficacy model; type: in vivo; details: FIG. 6D, relative to the control group
Description: Treatment doses are indicated in the figure beside each treatment, and were given 4 times.
Significance was determined by ordinary 2-way analysis of variance (ANOVA). The regimens were administered on days 0, 7, 14 and 21 of the study.
Female CB.17 SCID mice were obtained from Roswell Park Cancer Institute (Buffalo, N.Y.), initially at 6-8 weeks of age. Per treatment group, 8 animals were treated, unless otherwise indicated. Tumor pieces were derived from donor mice and engrafted subcutaneously.
5-FU was administered intraperitoneally. […] Tolerability: Mouse weights were measured once weekly to monitor treatment tolerability.

Q: For CCc1c2c(nc3ccc(O)cc13)-c1cc3c(c(=O)n1C2)COC(=O)[C@]3(O)CC [SN-38], which “activity relative to irinotecan” value (topoisomerase I) is on record?
A: 100-1000 fold

Q: And the cell growth inhibition [1]?
A: prolonged exposure also led to increased cell growth inhibition

Q: With FOLFIRINOX as the molecule, how does the “incidence of most common Grade 3-4 adverse events (neutropenia, fatigue, vomiting, diarrhea, thrombocytopenia, sensory neuropathy, anemia, elevated ALT, thromboembolism, febrile neutropenia)” value [2] read?
A: > 5%

Q: For O=C(O)C(=O)O.[NH-][C@@H]1CCCC[C@H]1[NH-].[Pt+2] [oxaliplatin], which maximum tolerated dose [3] is on record?
A: 17 mg/kg

Q: Which results are given for CCc1c2c(nc3ccc(OC(=O)N4CCC(N5CCCCC5)CC4)cc13)-c1cc3c(c(=O)n1C2)COC(=O)[C@]3(O)CC [irinotecan, (S)-4,11-diethyl-3,4,12,14-tetrahydro-4-hydroxy-3,14-dioxo1H-pyrano[3′,4′: 6,7]-indolizino[1,2-b]quinolin-9-yl-[1,4′bipiperidine]-1′-carboxylate]?
A: incidence of grade 4 neutropenia ([4]; patients heterozygous for UGT1A1*28 (6/7 genotype), single-agent irinotecan 350 mg/m^2 once every-3-weeks): 12.5%; incidence of grade 4 neutropenia ([4]; patients homozygous for the UGT1A1*28 allele, single-agent irinotecan 350 mg/m^2 once every-3-weeks): 50%; incidence of grade 4 neutropenia ([4]; patients homozygous for the wild-type allele (UGT1A1 6/6 genotype)): no grade 4 neutropenia was observed; overall survival [5]: No benefit of added 5-FU or oxaliplatin
